# From US20260185169A1, “MOLECULAR SIGNATURES TO PREDICT LONG-TERM LIVER FIBROSIS PROGRESSION” (THE BOARD OF REGENTS OF THE UNIVERSITY OF TEXAS SYSTEM, priority 2022, published 2026)
# System: FPS and molecular pathways
# Assay: Modulation of FPS and molecular pathways in hepatic transcriptome (RNA-Seq, CES/GSEI) in CENTAUR trial biopsies
# Format: in vivo, human
# Excerpt: Archived formalin-fixed liver tissues from index biopsy were used for histological assessment in all patients (FIG. 1 and Table 1A-11) to confirm no to minimal fibrosis (METAVIR fibrosis stage F0 or F1). The PLS validation set 1 (and FPS derivation set 1) is a case-control series of 43 chronic hepatitis C patients from a prior cohort study consecutively diagnosed and followed at Johns Hopkins and Massachusetts General Hospital between 1998 and 2010. Twenty-five patients were co-infected with HIV and on anti-retroviral therapies. The patients were regularly followed up with ultrasound elastography at median interval of 1.1 (IQR: 0.6-2.0) years. Liver stiffness measurement >7.0 and >9.5 kPa were regarded as indication of F2 and F3 fibrosis, respectively. The PLS validation set 2 (and FPS derivation set 2) is a case-control series of 38 patients who consecutively underwent liver transplantation for HCV-related cirrhosis and protocol liver biopsies at year 1, 2, and 5 after transplantation (and additional biopsies as needed to evaluate graft rejection, which were excluded) at Baylor University between 2002 and 2007. Median number of biopsies was 8 (IQR: 6-9) per patient with median interval between serial biopsies of 8.6 (IQR: 0.3-12.6) months. […] The FPS derivation set 3 is a cross-sectional series of 31 NAFLD patients who underwent diagnostic liver biopsy at Hiroshima University between 2003 and 2015. The FPS derivation set 4 is a cross-sectional series of 309 NAFLD patients who underwent diagnostic liver biopsy (F0 or F1 fibrosis) at Massachusetts General Hospital between 2009 and 2016. […] The cases were defined as patients who had F-stage increase of one stage or more in the follow-up biopsy. The FPS validation set 2 includes 78 patients with fibrotic liver diseases from various etiologies, for which de-identified fresh liver tissues were available from standard-care hepatic resection for organotypic ex vivo tissue culture at University of Texas Southwestern and Mount Sinai. The FPS validation set 3 consists of NASH patients with F1-F3 fibrosis who underwent liver biopsy before and after 1-year treatment with cenicriviroc (n=9) or placebo (n=10) in the phase Ilb CENTAUR trial (NCT02217475). Decrease of one or more fibrosis stage was regarded as anti-fibrotic response. The serum surrogate FPS was assessed in archived de-identified serum samples from 79 patients with chronic liver diseases. The FPSec validation set is a cohort of 122 patients with compensated (Child-Pugh class A) cirrhosis patients with mixed etiologies enrolled at University of Michigan between 2004 and 2006 as reported in our previous study. Hepatic decompensation was defined as newly developed massive ascites, hepatic encephalopathy, bleeding from gastroesophageal varices, or liver transplantation. The study was approved by institutional review board at respective institutions with written informed consent or exemption for use of archived de-identified samples (protocol numbers: STU062018-058, STU072018-071, 2010P000220/PHS, HS13-00159).
# Total RNA was isolated from fixed tissue sections by using High Pure RNA Paraffin kit (Roche), and assessed for quality by qRT-PCR of RPL13A. Total RNA from the PCLS tissues was isolated using RNeasy kit (Qiagen). RNA samples (100-200 ng) were subjected to the PLS/FPS assay implemented in the nCounter platform (NanoString), and transcriptome profiling of the CENTAUR trial samples was performed by RNA-Seq (TrueSeq RNA Access, Illumina). Expression of BCL2, COL1A1, and ACTA2 genes was measured by qRT-PCR (Table 3). Serum protein profiling was performed by using xMAP assay (Luminex). […]
# [1] = Fibrosis improved, NASH patients, Hallmark set, Cell cycle, DNA damage, response
# [2] = Fibrosis improved, NASH patients, Hallmark set, Cellular signaling
# [3] = Fibrosis improved, NASH patients, Hallmark set, Inflammatory response, immunity
# [4] = Fibrosis improved, NASH patients, Hallmark set, Metabolism, biosynthesis
# [5] = Fibrosis improved, NASH patients, Hallmark set, Pathogenic response
# [6] = Fibrosis improved, NASH patients, Hallmark set, Sex hormone signaling
# [7] = Fibrosis improved, NASH patients, Hallmark set, Stress response
# [8] = Fibrosis improved, NASH patients, Immune cell signature (GSE65136)
# [9] = Fibrosis improved, NASH patients, Nuclear receptor signaling (curated pathway members)
# [10] = Fibrosis improved, NASH patients, PPAR agonists on mouse primary hepatocytes (GSE27948)
# [11] = Fibrosis not improved, NASH patients, Hallmark set, Cell cycle, DNA damage, response
structure (smiles),measurement,setting,value
CCCCOCCOc1ccc(-c2ccc3c(c2)/C=C(/C(=O)Nc2ccc([S@@+]([O-])Cc4cncn4CCC)cc2)CCCN3CC(C)C)cc1 [Cenicriviroc],modulation of TGF-β and PDGFRB pathways,1-year cenicriviroc treatment,unchanged
same,proportion of patients with substantial CES reduction (FPS response),"CENTAUR trial, 1-year treatment, paired pre/post biopsies",22%
same,"NES, DNA repair gene set",[1],1.44
same,"NES, G2M checkpoint gene set",[1],−1.33
same,"NES, Mitotic spindle gene set",[1],−1.61
same,"NES, Apoptosis gene set","Fibrosis improved, NASH patients, Hallmark set, Cell death",1.32
same,"NES, E2F targets gene set",[2],−1.36
same,"NES, Hedgehog signaling gene set",[2],−0.65
same,"NES, KRAS signaling gene set",[2],1.31
same,"NES, Myc targets v1 gene set",[2],1.56
same,"NES, Myc targets v2 gene set",[2],1.26
same,"NES, Notch signaling gene set",[2],1.00
same,"NES, PI3K/AKT/mTOR signaling gene set",[2],0.91
same,"NES, TGFβ signaling gene set",[2],0.81
same,"NES, TNFα signaling via NF-κB gene set",[2],0.96
same,"NES, Wnt/β-catenin signaling gene set",[2],−1.07
same,"NES, mTORC1 signaling gene set",[2],1.71
same,"NES, p53 pathway gene set",[2],1.00
same,"NES, Allograft rejection gene set",[3],1.83
same,"NES, IL2 STAT5 signaling gene set",[3],0.89
same,"NES, IL6 JAK STAT3 signaling gene set",[3],0.95
same,"NES, Inflammatory response gene set",[3],1.38
same,"NES, Interferon-α response gene set",[3],2.12
same,"NES, Interferon-γ response gene set",[3],2.07
same,"NES, Adipogenesis gene set",[4],1.60
same,"NES, Bile acid metabolism gene set",[4],1.62
same,"NES, Cholesterol homeostasis gene set",[4],1.19
same,"NES, Coagulation gene set",[4],1.57
same,"NES, Complement gene set",[4],2.07
same,"NES, Fatty acid metabolism gene set",[4],2.22
same,"NES, Glycolysis gene set",[4],1.10
same,"NES, Heme metabolism gene set",[4],−0.98
same,"NES, Oxidative phosphorylation gene set",[4],2.49
same,"NES, Peroxisome gene set",[4],1.49
same,"NES, Protein secretion gene set",[4],1.57
same,"NES, Xenobiotic metabolism gene set",[4],1.66
same,"NES, Angiogenesis gene set",[5],1.47
same,"NES, Epithelial mesenchymal transition gene set",[5],1.41
same,"NES, Androgen response gene set",[6],1.52
same,"NES, Estrogen response early gene set",[6],−0.79
same,"NES, Estrogen response late gene set",[6],1.12
same,"NES, Hypoxia gene set",[7],0.97
same,"NES, Myogenesis gene set",[7],−0.95
same,"NES, Reactive oxygen species gene set",[7],1.07
same,"NES, UV response up gene set",[7],1.12
same,"NES, Unfolded protein response gene set",[7],1.34
same,"NES, B cell (naïve) gene set",[8],−0.52
same,"NES, CD4 T cell (naïve) gene set",[8],−0.57
same,"NES, CD8 T cell gene set",[8],1.13
same,"NES, DC (activate) gene set",[8],1.35
same,"NES, Gamma delta T cell gene set",[8],1.09
same,"NES, Macrophage (M1) gene set",[8],1.42
same,"NES, Macrophage (M2) gene set",[8],2.66
same,"NES, Mast cell (active) gene set",[8],1.22
same,"NES, Mast cell (rest) gene set",[8],−1.59
same,"NES, Memory B cell gene set",[8],−0.72
same,"NES, Memory T cell (rest) gene set",[8],0.80
same,"NES, Monocyte gene set",[8],2.81
same,"NES, NK cell (rest) gene set",[8],1.12
same,"NES, Neutrophil gene set",[8],1.87
same,"NES, Plasma cell gene set",[8],0.98
same,"NES, Regulatory T cell gene set",[8],−0.99
same,"NES, T follicular helper cell gene set",[8],1.22
same,"NES, FXR pathway gene set",[9],−1.06
same,"NES, PPAR signaling gene set (first listed)",[9],1.81
same,"NES, PPAR signaling gene set (second listed)",[9],1.70
same,"NES, PPARα pathway gene set (first listed)",[9],1.55
same,"NES, PPARα pathway gene set (second listed)",[9],0.92
same,"NES, RAR/RXR pathway gene set",[9],−1.50
same,"NES, RXR/VDR pathway gene set",[9],−1.10
same,"NES, GW7647 (PPARa agonist) gene set","Fibrosis improved, NASH patients, PPAR agonist on human primary hepatocytes (GSE53399)",1.84
same,"NES, GW501516 (PPARd agonist) gene set",[10],1.16
same,"NES, ROSIGLITAZONE (PPARg agonist) gene set",[10],1.36
same,"NES, WY14643 (PPARa agonist) gene set",[10],1.56
same,"NES, PDGFRB target gene signature","Fibrosis improved, NASH patients, iLINCS",−0.83
same,"NES, DNA repair gene set",[11],0.85
same,"NES, G2M checkpoint gene set",[11],2.00
